According to article PMC12027948, “Development of Peptidomimetic PROTACs as Potential Degraders of 3-Chymotrypsin-like Protease of SARS-CoV-2” (International Journal of Molecular Sciences, 2025):

Assays:
[1] = target: SARS-CoV-2 3CL^pro (Severe acute respiratory syndrome coronavirus 2, UniProt P0DTD1); experiment: cell-based; conditions: HEK293 cells with stable 3CL^pro-flag expression, 72 h treatment, densitometry of Western blot; read-out: Dmax (maximum degradation in percentage)
[2] = Cytotoxicity assay (Cell Counting Kit-8); conditions: human
[3] = test system: HEK293 cells; experiment: Cytotoxicity assay (Cell Counting Kit-8); conditions: read-out: CC50 (50% cytotoxicity concentration); HEK293, 72 h, CCK8
[4] = HEK293 cells, CC50 (50% cytotoxicity concentration), HEK293, 72 h, CCK8

SMILES	Dmax [1]	CC50 at 3 days [2, 4]	CC50 [3]	CC50 at 3 days [2]
CC(C)[C@H](NC(=O)[C@@H](NC(=O)OC(C)(C)C)C1CCCCC1)C(=O)OCCOCCNc1cccc2c1C(=O)N(C1CCC(=O)NC1=O)C2=O (some centres unmarked) [Compound 15]	89.3%	145 µM	–	–
CC(C)C[C@H](NC(=O)OC(C)(C)C)C(=O)N[C@@H](Cc1ccccc1)C(=O)OCCOCCOCCNc1cccc2c1C(=O)N(C1CCC(=O)NC1=O)C2=O (some centres unmarked) [Compound 16]	75%	~25 µM	25.8 µM	–
CC(C)(C)OC(=O)N[C@H](C(=O)N[C@@H](Cc1ccccc1)C(=O)NCCCCNC(=O)CCC(=O)Nc1cccc2c1CN(C1CCC(=O)NC1=O)C2=O)C1CCCCC1 (some centres unmarked) [Compound 17]	–	–	–	219 µM
CC(C)(C)OC(=O)N[C@H](C(=O)N[C@@H](Cc1ccccc1)C(=O)NCCCCCCNC(=O)CCC(=O)Nc1cccc2c1CN(C1CCC(=O)NC1=O)C2=O)C1CCCCC1 (some centres unmarked) [Compound 18]	–	–	–	92.2 µM
CC(C)C[C@H](NC(=O)[C@H](Cc1ccccc1)NC(=O)OC(C)(C)C)C(=O)NCCCCCCNC(=O)CCC(=O)Nc1cccc2c1CN(C1CCC(=O)NC1=O)C2=O (some centres unmarked) [Compound 19]	–	–	–	241 µM
